From patent publication US11730743B2, “Protection of cells from degeneration and treatment of geographic atrophy” (University of Kentucky Research Foundation, priority 2012, dated 2023)
The star is where a group is joined. Cbz = O=C(OCc1ccccc1)*; CH2F = FC*

How the values were obtained:
[1] = tested on: wild-type mice; test: Alu RNA- or pAlu-induced RPE degeneration after subretinal injection (fundus photographs, ZO-1 flat mounts); type: in vivo; conditions: test agent intravitreous; for pAlu-induced RPE degeneration: subretinal pAlu
Method: Subretinal injection and imaging. Subretinal injections (1 μL) in mice were performed using a Pico-Injector (PLI-100, Harvard Apparatus). In vivo transfection of plasmids was achieved using 10% Neuroporter (Genlantis). Fundus imaging was performed on a TRC-50 IX camera (Topcon) linked to a digital imaging system (Sony). Immunolabeling of RPE flat mounts was performed using antibodies against human zonula occludens-1 (Invitrogen).
(§1) Fundus photography. Retinal photographs of dilated mouse eyes were taken with a TRC-50 IX camera (Topcon) linked to a digital imaging system (Sony).
(§2) Immunolabeling. Human eyes fixed in 2-4% paraformaldehyde were prepared as eyecups, cryoprotected in 30% sucrose, embedded in optimal cutting temperature compound (Tissue-Tek OCT; Sakura Finetek), and cryosectioned into 10 μm sections. Depigmentation was achieved using 0.25% potassium permanganate and 0.1% oxalic acid. Immunohistochemical staining was performed with the rabbit antibody against NLRP3 (1:100, Sigma Aldrich) or rabbit antibody against Caspase-1 (prediluted, AbCam). Isotype IgG was substituted for the primary antibody to assess the specificity of the staining. Bound antibody was detected with biotin-conjugated secondary antibodies, followed by incubation with ABC reagent and visualized by Vector Blue (Vector Laboratories). Levamisole (Vector Laboratories) was used to block endogenous alkaline phosphatase activity. Slides were washed in PBS, counterstained with neutral red (Fisher Scientific), rinsed with deionized water, air dried, and then mounted in Vectamount (Vector Laboratories). Fluorescent labeling of human tissue was performed with the rabbit antibody against PYCARD (1:50, Clone N-15, Santa Cruz Biotechnology). Immunolabeling was visualized by fluorescently conjugated anti-rabbit secondary antibody (Invitrogen). Tissue autofluorescence was quenched by incubating the sections in 0.3% Sudan black (Fisher Scientific). Sections were mounted in Vectashield with DAPI (Vector Laboratories). Mouse RPE/choroid flat mounts were fixed with 4% paraformaldehyde or 100% methanol, stained with rabbit antibodies against human zonula occludens-1 (1:100, Invitrogen) and visualized with Alexa594 (Invitrogen). All images were obtained using the Leica SP-5 or Zeiss Axio Observer Z1 microscopes.
Subretinal injection. Subretinal injections (1 μL) in mice were performed using a Pico-Injector (PLI-100, Harvard Apparatus). In vivo transfection of plasmids coding for two different Alu sequences (pAlu) or empty control vector (pNull) (Bennett et al., 2008; Kaneko et al., 2011; Shaikh et al., 1997) was achieved using 10% Neuroporter (Genlantis). AAV1-BEST1-Cre (Alexander and Hauswirth, 2008) or AAV1-BEST1-GFP were injected at […] pfu/mL and in vitro transcribed Alu RNA was injected at 0.3 mg/mL.
(§3) Drug treatments. siRNAs formulated in siRNA buffer (20 mM KCL, 0.2 mM MgCl2 in HEPES buffer at pH 7.5; Dharmacon) or phosphate buffered saline (PBS; Sigma-Aldrich); the TLR4 antagonist Ultra Pure Rhodobacter sphaeroides LPS (LPS-RS, InvivoGen), a peptide inhibitor of MyD88 homodimerization IMG-2005 (IMGENEX), control inhibitor (IMGENEX), recombinant IL-18 (Medical & Biological Laboratories), neutralizing rat antibodies against mouse IL-1β (IMGENEX), neutralizing rat antibodies against mouse IL-18 (Medical & Biological Laboratories), isotype control IgGs (R&D Systems or eBioscience as appropriate), Caspase-1 inhibitor Z-WEHD-FMK (R&D Systems), Caspase-3 inhibitor Z-DEVD-FMK (R&D Systems), Caspase control inhibitor Z-FA-FMK (R&D Systems), (2R,4R)-APDC (Enzo Life Sciences), Glipizide (Sigma-Aldrich), Glyburide (Sigma-Aldrich), and P2X7 receptor antagonist A438079 (Tocris Bioscience) were dissolved in phosphate buffered saline (PBS; Sigma-Aldrich) or dimethyl sulfoxide (DMSO; Sigma-Aldrich), and injected into the vitreous humor in a total volume of 1 μL with a 33-gauge Exmire microsyringe (Ito Corporation). […]

[2] = tested on: human RPE cells
Method: Cell viability. Cell viability measurements were performed using the CellTiter 96 AQueous One Solution Cell Proliferation Assay (Promega) in according to the manufacturer's instructions.
Cell culture. All cell cultures were maintained at 37° C. and 5% CO2. Primary mouse RPE cells were isolated as previously described (Yang et al., 2009) and grown in Dulbecco Modified Eagle Medium (DMEM) supplemented with 20% FBS and standard antibiotics concentrations. Primary human RPE cells were isolated as previously described (Yang et al., 2008) and maintained in DMEM supplemented with 10% FBS and antibiotics. HeLa cells were maintained in DMEM supplemented with 20% FBS and standard antibiotics concentrations. THP-1 cells were cultured in RPMI 1640 medium supplemented with 10% FBS and antibiotics.
Transient transfection. Human or mouse RPE cells were transfected with pUC19, pAlu, pCDNA3.1/Dicer-FLAG, pCDNA3.1, Alu RNA, NLRP3 siRNA sense, PYCARD siRNA sense, MyD88 siRNA sense, DICER1 antisense oligonucleotide (AS), control (for DICER1) AS, Alu AS, and control (for Alu) AS using Lipofectamine 2000 (Invitrogen) according to the manufacturer's instructions.
Cell viability. MTS assays were performed using the CellTiter 96 AQueous One Solution Cell Proliferation Assay (Promega) according to the manufacturer's instructions. For examining the cytoprotective effect of glycine in Alu RNA induced cell death, human RPE cells were transfected with pNull/pAlu. At 6 h post-transfection the cells were incubated with complete media containing glycine (5 mM) or vehicle, and cell viability was assessed after 24 h. Similarly, human RPE cells primed with LPS (5 μg/ml for 6 h) were treated with ATP (25 μM) in the presence of glycine containing media (5 mM). 30 min post ATP cell viability was assessed as described above.

[3] = tested on: wild-type mice; test: Laser-induced choroidal neovascularization; type: in vivo; conditions: intravitreous injection
[4] = tested on: Dicer1f/f mice; test: RPE degeneration induced by subretinal AAV1-BEST1-Cre (DICER1 loss); type: in vivo; conditions: inhibitor intravitreous
Method: as §2, with “Sections were mounted in Vectashield with DAPI (Vector Laboratories). Mouse RPE/choroid flat mounts were fixed with 4% paraformaldehyde or 100% methanol, stained with rabbit antibodies against human zonula occludens-1 (1:100, Invitrogen) and visualized with Alexa594 (Invitrogen). All images were obtained using the Leica SP-5 or Zeiss Axio Observer Z1 microscopes.” left out

[5] = tested on: IRAK1/4; test: Western blot of phosphorylated IRAK1/4 in human RPE cells; type: cell-based; conditions: normalized to Vinculin
Method: (§4) Protein abundance and activity. Protein abundance was assessed by Western blot analysis using primary antibodies recognizing Caspase-1 (1:500; Invitrogen), pIRAK1 (1:500; Thermo Scientific), pIRAK4 (1:500, Abbomax, Inc), PYCARD (1:200, Santa Cruz Biotechnology), NLRP3 (1:500, Enzo Life Sciences) and Vinculin (1:1,000; Sigma-Aldrich). Caspase-1 activity was visualized using Caspalux1 E1D2 (OncoImmunin) reagent according to the manufacturer's instructions.
Western blotting. Tissues or cells were homogenized in lysis buffer (10 mM Tris base, pH 7.4, 150 mM NaCl, 1 mM EDTA, 1 mM EGTA, 1% Triton X-100, 0.5% NP-40, protease and phosphatase inhibitor cocktail (Roche)). Protein concentrations were determined using a Bradford assay kit (Bio-Rad) with bovine serum albumin as a standard. Proteins (40-100 μg) were run on NuPAGE Bis-Tris gels (Invitrogen) and transferred to Immun-Blot PVDF membranes (Bio-Rad). Cells were scraped in hot Laemmli buffer (62.5 mM Tris base, pH 6.8, 2% SDS, 5% 2-Mercaptoethanol, 10% Glycerol, 0.01% Bromophenol Blue). Samples were boiled and run on 4-20% NuPAGE Tris-Glycine gels (Invitrogen). […] Protein loading was assessed by immunoblotting using an anti-Vinculin antibody (1:1,000; Sigma-Aldrich). […]

[6] = target: T1, Caspase-1 (Homo sapiens, UniProt P29466); test: Caspase-1 activation in cultured cells (western blot p20, Caspalux1 substrate cleavage); type: cell-based; conditions: human RPE cells; Caspalux1
T1 construct: endogenous in cells; host or cells: primary human RPE cells; also THP-1 and HeLa cells
T1 sequence (P29466 120-297 limits assumed): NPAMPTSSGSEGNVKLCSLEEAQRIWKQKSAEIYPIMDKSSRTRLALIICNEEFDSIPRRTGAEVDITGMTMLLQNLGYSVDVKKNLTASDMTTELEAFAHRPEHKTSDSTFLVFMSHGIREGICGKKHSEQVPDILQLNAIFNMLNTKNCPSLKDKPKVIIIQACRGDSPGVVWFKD
T1 sequence (P29466 317-404 limits assumed): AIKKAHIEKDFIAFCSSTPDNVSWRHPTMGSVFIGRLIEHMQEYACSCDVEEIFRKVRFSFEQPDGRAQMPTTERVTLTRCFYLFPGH
Method: as §4
Western blotting. Tissues or cells were homogenized in lysis buffer (10 mM Tris base, pH 7.4, 150 mM NaCl, 1 mM EDTA, 1 mM EGTA, 1% Triton X-100, 0.5% NP-40, protease and phosphatase inhibitor cocktail (Roche)). Protein concentrations were determined using a Bradford assay kit (Bio-Rad) with bovine serum albumin as a standard. Proteins (40-100 μg) were run on NuPAGE Bis-Tris gels (Invitrogen) and transferred to Immun-Blot PVDF membranes (Bio-Rad). Cells were scraped in hot Laemmli buffer (62.5 mM Tris base, pH 6.8, 2% SDS, 5% 2-Mercaptoethanol, 10% Glycerol, 0.01% Bromophenol Blue). Samples were boiled and run on 4-20% NuPAGE Tris-Glycine gels (Invitrogen). The transferred membranes were blocked for 1 h at RT and incubated with antibodies against human Caspase-1 (1:500; Invitrogen), mouse Caspase1 (1:500; MBL), NLRP3 (1:1000; Enzo Life Sciences), PYCARD (1:1000, RayBiotech), phospho-IRAK1 (S376) (1:500, Thermo Scientific), phospho-IRAK4 (T345) (1:500, AbboMax), DICER1 (1:2,000; Bethyl), MyD88 (1:1,000; Cell Signaling), and mouse IL-18 (1:200; MBL) at 4° C. overnight. Protein loading was assessed by immunoblotting using an anti-Vinculin antibody (1:1,000; Sigma-Aldrich). The secondary antibodies were used (1:5,000) for 1 h at RT. […]
Caspase-1 activity. […] Caspalux1E1D2 signal was quantified reading the fluorescence (excitation 552 nm, emission 580 nm) using a Synergy 4 reader (Biotek). Quantification of fluorescence from images was performed by converting images into grayscale in Adobe Photoshop CS5, and measuring the integrated density of black and white images using ImageJ software (NIH) (Bogdanovich et al., 2008).

[7] = tested on: IL-18; test: Western blot of IL-18 maturation in RPE cell lysates of wild-type mice; type: in vivo; conditions: inhibitor intravitreous
Method: as §3
Western blotting. […] Protein concentrations were determined using a Bradford assay kit (Bio-Rad) with bovine serum albumin as a standard. […] Protein loading was assessed by immunoblotting using an anti-Vinculin antibody (1:1,000; Sigma-Aldrich). […]

[8] = tested on: mice; test: RPE degeneration induced by intravitreous recombinant IL-18; type: in vivo; conditions: for RPE degeneration induced by recombinant IL-18: intravitreous
Method: as §1
as §2, with “microscopes. […]” for “microscopes.”

[9] = tested on: Caspase-3; test: Caspase-3 activation in the RPE of wild-type mice; type: in vivo; conditions: IL-18 alone
Method: Drug treatments. siRNAs formulated in siRNA buffer (20 mM KCL, 0.2 mM MgCl2 in HEPES buffer at pH 7.5; Dharmacon) or phosphate buffered saline (PBS; Sigma-Aldrich); the TLR4 antagonist Ultra Pure Rhodobacter sphaeroides LPS (LPS-RS, InvivoGen), a peptide inhibitor of MyD88 homodimerization IMG-2005 (IMGENEX), control inhibitor (IMGENEX), recombinant IL-18 (Medical & Biological Laboratories), neutralizing rat antibodies against mouse IL-1β (IMGENEX), neutralizing rat antibodies against mouse IL-18 (Medical & Biological Laboratories), isotype control IgGs (R&D Systems or eBioscience as appropriate), Caspase-1 inhibitor Z-WEHD-FMK (R&D Systems), Caspase-3 inhibitor Z-DEVD-FMK (R&D Systems), Caspase control inhibitor Z-FA-FMK (R&D Systems), (2R,4R)-APDC (Enzo Life Sciences), Glipizide (Sigma-Aldrich), Glyburide (Sigma-Aldrich), and P2X7 receptor antagonist A438079 (Tocris Bioscience) were dissolved in phosphate buffered saline (PBS; Sigma-Aldrich) or dimethyl sulfoxide (DMSO; Sigma-Aldrich), and injected into the vitreous humor in a total volume of 1 μL with a 33-gauge Exmire microsyringe (Ito Corporation). […] As a control, Luc siRNA-chol (17+2 nt) was used with identical dosages.
Caspase-3 activity. The caspase-3 activity was measured using Caspase-3 Fluorimetric Assay (R&D Systems) according to the manufacturer's instruction.

## Clc1cccc(-c2nnnn2Cc2cccnc2)c1Cl [A438079]
[1]
  pAlu-induced RPE degeneration: blocked

## O=C(Nc1nc2ccccc2n1CCN1CCOCC1)c1cccc([N+](=O)[O-])c1 [N-(2-Morpholinylethyl)-2-(3-nitrobenzoylamido)-benzimidazole]
[1]; subretinal Alu RNA
  Alu RNA-induced RPE degeneration: blocked
[2]
  Alu RNA-induced cytotoxicity, viability of human RPE cells: protects
  pAlu-induced cytotoxicity, viability of human RPE cells: protects
[3]
  laser-induced choroidal neovascularization: reduced

## COc1ccc(Cl)cc1C(=O)NCCc1ccc(S(=O)(=O)NC(=O)NC2CCCCC2)cc1 [glyburide, Glyburide]
[1]
  pAlu-induced RPE degeneration: inhibited

## NCC(=O)O [glycine]
[2]; LPS 5 μg/ml 6 h, ATP 25 μM, glycine 5 mM, 30 min post ATP
  human RPE cell death induced by LPS+ATP: inhibited

## Cbz-WEHD-CH2F
[1]
  pAlu-induced RPE degeneration: blocked
[4]
  AAV1-BEST1-Cre-induced RPE degeneration: blocked
[5]
  Alu RNA-induced phosphorylation of IRAK1/4: reduced
[6]
  Alu RNA-induced fluorescent substrate cleavage (Caspase-1 activity): blocked
[7]
  pAlu-induced IL-18 maturation: blocked

## Z-DEVD-FMK
[8]; wild-type mice, inhibitor intravitreous
  IL-18-induced RPE degeneration: blocked

B1: Recombinant IL-18: recombinant IL-18 (Medical & Biological Laboratories) (protein, UniProt P70380 36-192, looked up)
Interleukin-18: NFGRLHCTTAVIRNINDQVLFVDKRQPVFEDMTDIDQSASEPQTRLIIYMYKDSEVRGLAVTLSVKDSKMSTLSCKNKIISFEEMDPPENIDDIQSDLIFFQKRVPGHNKMEFESSLYEGHFLACQKEDDAFKLILKKKDENGDKSVMFTLTNLHQS
[8]; Casp1−/− mice
  RPE degeneration induced by recombinant IL-18: induced RPE degeneration
[8]; wild-type mice
  RPE degeneration induced by recombinant IL-18: induced RPE degeneration
[9]
  Caspase-3 activation in the RPE: induced Caspase-3 activation
